Results as given in PMC8949241, “Design, Synthesis and Biological Evaluation of Neogliptin, a Novel 2-Azabicyclo[2.2.1]heptane-Based Inhibitor of Dipeptidyl Peptidase-4 (DPP-4)” (Pharmaceuticals, 2022).

Molecular target: T1, recombinant DPP-4 enzyme D4943 (Homo sapiens, UniProt P27487)
T1 construct: purchased Sigma-Aldrich D4943
Assay: DPP-4 enzyme inhibition, chromogenic substrate Gly-Pro-pNA, absorbance at 405 nm
Type: biochemical
Settings: 37 °C for 30 min, pH 7.6, dilution range 10^−4 to 10^−11 M
Experimental: The DDP-4 enzyme inhibitory activities of the synthesised compounds were assessed using protocols similar to those described in the literature. For IC50 values determination, inhibitory assays were carried out using recombinant DPP-4 enzyme D4943, chromogenic substrate Gly-Pro-pNA and buffer system (50 mM Tris-HCl, 50 mM NaCl, 0.01% Triton, pH = 7.6). After short incubation (37 °C for 30 min), the absorbance at 405 nm was measured. The procedure was initially optimised using reference compounds. Each inhibitor was analysed in the dilution range from 10^−4 to 10^−11 M. Certified samples of commercial drugs-inhibitors of DPP-4 (vilda-, sita-, alo- and linagliptin) with known IC50 were used as reference compounds. […] We analysed every compound in the dilution range […] (Table 3).
For the inhibitory assays, we used the substrate Gly-Pro-p-nitroanilide (H-Gly-Pro-pNA HCl, G0513) and recombinant dipeptidyl peptidase-4 enzyme (D4943) that were purchased from Sigma-Aldrich (St. Louis, MO, USA). […] The mixtures were incubated at 37 °C for 30 min, and the absorbance at 405 nm was measured using the microplate reader ChemWell (Awareness Technology Inc., Palm City, FL, USA). DPP-4 inhibitory activities for each test compound were calculated. […]

T1 sequence (P27487 whole entry): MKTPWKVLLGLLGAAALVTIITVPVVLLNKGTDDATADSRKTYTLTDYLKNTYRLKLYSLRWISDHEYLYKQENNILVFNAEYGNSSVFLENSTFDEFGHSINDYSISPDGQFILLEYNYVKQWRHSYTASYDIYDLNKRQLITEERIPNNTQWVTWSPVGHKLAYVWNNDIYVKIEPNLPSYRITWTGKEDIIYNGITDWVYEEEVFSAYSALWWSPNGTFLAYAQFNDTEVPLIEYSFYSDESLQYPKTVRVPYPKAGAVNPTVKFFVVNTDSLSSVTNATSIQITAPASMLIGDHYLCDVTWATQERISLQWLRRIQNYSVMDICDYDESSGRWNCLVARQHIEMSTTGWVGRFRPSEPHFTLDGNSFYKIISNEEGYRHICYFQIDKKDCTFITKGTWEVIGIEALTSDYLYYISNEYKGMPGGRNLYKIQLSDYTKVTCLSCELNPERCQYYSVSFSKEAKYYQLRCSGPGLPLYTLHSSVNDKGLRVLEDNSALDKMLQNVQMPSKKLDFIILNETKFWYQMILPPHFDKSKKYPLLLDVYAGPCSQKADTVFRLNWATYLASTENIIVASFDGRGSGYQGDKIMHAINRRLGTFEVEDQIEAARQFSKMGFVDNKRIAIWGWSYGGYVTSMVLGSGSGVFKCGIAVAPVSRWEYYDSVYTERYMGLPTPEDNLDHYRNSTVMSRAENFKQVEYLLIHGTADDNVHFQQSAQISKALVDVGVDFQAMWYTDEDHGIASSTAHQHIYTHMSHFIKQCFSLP

IC50: > 1000 nM
Substance: ( 3R,S)-2-[(3R)-3-Amino-4-(2,4,5-trifluorophenyl)butanoyl]-endo-2-azabicyclo[2.2.1]hepnane-3-carbonitrile p-toluenesulpfonate [12c (S-endo): 12d (R-endo), 1:1 mixture]
